Measurements: US20170348253A1, “Treatment of Drug-Resistant Microbial Infections” (NovaBiotics Limited, priority 2016, published 2017)

What was measured:
[1] = test system: P. aeruginosa strain LES431; assay: Neutropenic mouse thigh model of infection; type: in vivo, Pseudomonas aeruginosa; details: for Log10 reduction in cfu/g: neutropoenic mice, thigh, 24 h post-treatment, compared with vehicle control
Method: Mouse thigh infection model experiments were conducted at Eurofins Panlabs, (Taipei, Taiwan). Mice were rendered neutropoenic with cyclophosphamide prior to infection. They were separated into groups of 5 animals per treatment. […] Animals were sacrificed 25 h post infection (24 h post-treatment) and thigh weights and cfu/g of tissue were calculated and recorded.

[2] = test system: Staphylococcus aureus; assay: Aberdeen clinical study: sputum microbiology, resistance profile of predominant pathogen; type: in vivo; parameters: key: MRSA = Methicillin-resistant Staphylococcus aureus; MSSA = Methicillin-sensitive Staphylococcus aureus; PR = pan-resistant; S = sensitive; Cip^R = ciprofloxacin-resistant; Cip^S = ciprofloxacin sensitive; details: Patient 1, stable CF lung disease, oral 450 mg once daily increased weekly to four times daily; pre trial MRSA
Method: (§1) Patients≧18 years of age, weighing>50 kg with stable CF lung disease were commenced on oral cysteamine bitartrate (Cystagon®) 450 mg once daily, increased weekly to 450 mg four times daily. Serial plasma cysteamine concentrations were measured for 24 h after the first dose. Participants were reviewed every week for 6 weeks, except at 4 weeks. Plasma cysteamine concentrations were measured 8 h after dosing when reviewed at 1, 2 and 3 weeks and 6 h after dosing when reviewed at 5 weeks. Sputum cysteamine concentration was also quantified at the 5-week assessment. Routine monitoring of clinical microbiology and reporting of speciation and resistance profile of major colonising microorganisms from patients continued as normal, prior to, during where necessary and after the trial by the hospital microbiology laboratory.

[3] = test system: P. aeruginosa; assay: as above; type: in vivo, Pseudomonas aeruginosa; details: oral 450 mg once daily increased weekly to four times daily
Method: as §1

O=C(O)c1cn(C2CC2)c2cc(N3CCNCC3)c(F)cc2c1=O [Ciprofloxacin]
Log10 reduction in cfu/g ([1]; 15 mg/kg i.v.): 2.02 log10 cfu/g

NCCS [Cysteamine, cysteamine]
Effect of cysteamine on the activity of ciprofloxacin ([1]; neutropenic mouse thigh model, cysteamine 1.25 mg/kg with ciprofloxacin 15 mg/kg): chemopotentiates the activity of ciprofloxacin
Log10 reduction in cfu/g ([1]; 1.25 mg/kg i.v.): 0.74 log10 cfu/g

NCCS.O=C(O)C(O)C(O)C(=O)O (stereo not shown) [cysteamine bitartrate]
Post trial microbiology (predominant pathogen in sputum) [2]: MSSA
Post trial microbiology (predominant pathogen in sputum) ([3]; Patient 2, stable CF lung disease, pre trial PR P. aeruginosa): S P. aeruginosa
Post trial microbiology (predominant pathogen in sputum) ([3]; Patient 3, stable CF lung disease, pre trial Cip^R P. aeruginosa): Cip^S P. aeruginosa

Colistin
Log10 reduction in cfu/g ([1]; 5 mg/kg SC): 5.02 log10 cfu/g
